Entries after “also recorded” stand apart in the source; their conditions may differ. Marks after values point to notes of the source that are not given here.
Key:
supragingival plaque = experiment: Clinical trial: microbial composition of supragingival plaque (16S rRNA gene sequencing), whole community; type: in vivo, human
Text: Following the completion of the examination and supragingival plaque collection, participants received a supragingival scaling, clean and prophylaxis of all their teeth. At the completion of the last examination for leg 3, each participant received a professional fluoride treatment.
Participants had all supragingival plaque collected from the buccal surfaces of their maxillary molars (teeth 17, 16, 26 & 27) with a sterile scaling instrument. The plaque samples from each tooth were placed in separate sterile tubes, to give four samples per participant.
Genomic DNA was extracted from the plaque using a combination of mechanical disruption of the cells via a Precellys homogeniser and the chemical extraction and purification of the genomic DNA via the PowerLyzer PowerSoil DNA Isolation Kit (MoBio). Quantitation of the extracted DNA was achieved using a Qubit dsDNA High Sensitivity Assay kit (ThermoFisher), before 5 ng DNA was used as template in a PCR reaction that amplified the V4 variable region of the 16S ribosomal RNA gene and individually barcoded the PCR product from each sample. The barcoded DNA was then sequenced using an Ion Torrent Personal Genome machine and Torrent Suite™ Software (ThermoFisher).
Analysis of the resulting sequence of the 16S ribosomal RNA gene enabled identification of the bacterial population present in each sample, down to the species level. […]
The individual 16S rDNA sequences produced for each sample were used to both classify the microbial lineages present (grouped as species level taxa) and determine the abundances of each taxon. Differences in the bacterial community over time was determined by measuring the changes in the relative taxon abundances for each individual.

[1] = system: Fusobacterium nucleatum (ATCC 10953); experiment: Six species polymicrobial biofilm in constant-depth film fermenter, species composition: F. nucleatum; type: cell-based
Protocol: (§1) To model supragingival plaque six representative oral bacterial species, Streptococcus sanguinis (NCTC 7863), Streptococcus mutans Ingbritt, Actinomyces naeslundii (NCTC 10301), Veillonella parvula (ATCC 17745), Lactobacillus casei (NCDO 161) and Fusobacterium nucleatum (ATCC 10953) (Table 5) were cultured as a polymicrobial biofilm on a human enamel substratum in a constant-depth film fermenter (CDFF; Cardiff University, UK). The CDFF was housed in a 37° C. incubator under anaerobic conditions which were maintained by a constant flow of 5% CO2 in N2 at 1 L/h. The CDFF contained 15 removable polytetrafluoroethylene (PTFE) pans on a circular platform that was rotated at a constant speed of three rpm. The biofilms were grown on three enamel blocks (see below) in each PTFE pan using an artificial saliva medium (ASM, 2.5 g/L mucin type II (porcine, gastric, Sigma), 2.0 g/L bacteriological peptone (Oxoid), 2.0 g/L tryptone (Oxoid), 1.0 g/L yeast extract (Oxoid), 0.35 g/L NaCl, 0.2 g/L KCl, 0.2 mg/L vitamin K, 1 mg/L haemin and 0.1 g/L cysteine hydrochloride) at a constant flow rate of 30 mL/h. Prior to inoculation, the CDFF pan surfaces were conditioned for 24 h with ASM at a flow rate of 10 mL/h (McBain et al (2003) J Appl Microbiol. 94(4):655-66). In order to mimic in vivo bacterial growth conditions in the oral cavity with dietary sugar intake and to provide a high cariogenic challenge, a 1% (w/v) sucrose solution in ASM was pumped into the CDFF four times a day at four hourly intervals with a flow rate of 30 mL/h for 10 min.
(§2) Three treatments were applied to the polymicrobial biofilms: 290 ppm fluoride with 220 ppm fluoride as SnF2 and 70 ppm fluoride as NaF (referred to as SnF2), 2% CPP-ACP and 2% CPP-ACP-SnF2. These treatments were compared with the control in which the test solution was replaced with ASM. Each treatment was applied using two 10 min pulses of the test solution in ASM with a flow rate of 30 mL/h. The first pulse started 30 min prior to the first sucrose pulse of the morning and the second started 3 h 30 min after the final sucrose pulse of the day.
(§3) On day 6, 12 and 19 after inoculation four pans were removed aseptically from the CDFF and replaced with blank sterile pans. Enamel blocks from the pans were removed for bacterial enumeration and transverse microradiography.
Planktonic and loosely attached bacterial cells were firstly removed from the enamel blocks by light washing with 100 μL ASM. To harvest the biofilm cells on each block, the surface was scraped with a sterile scraper with 1 mL of ASM. The biofilm bacterial cells were sedimented by centrifugation (10,000 g, 10 min), the supernatant carefully decanted and the cell pellets stored at −80° C. until required for DNA extraction. The enamel blocks were then used for sectioning and microradiography.
For each timepoint, DNA was extracted separately from 8-9 enamel blocks using PowerLyzer® PowerSoil® DNA Isolation Kits (MoBio Laboratories) following the manufacturers “Vacuum Protocol” with a Precellys® bead homogeniser (Bertin Technologies). Samples were quantified using a Qubit™ dsDNA HS assay kit (Life Technologies) before being stored at −80° C.
The Ion Amplicon Library Preparation Fusion Method (Thermo Fisher Scientific), was adapted for amplification of the V4 region of the 16S rRNA gene. […]

[2] = system: Streptococcus sanguinis (NCTC 7863); experiment: Six species polymicrobial biofilm in constant-depth film fermenter, species composition: S. sanguinis; type: cell-based
Protocol: as §1, §2, §3
Planktonic and loosely attached bacterial cells were firstly removed from the enamel blocks by light washing with 100 μL ASM. […]
(§4) For each timepoint, DNA was extracted separately from 8-9 enamel blocks using PowerLyzer® PowerSoil® DNA Isolation Kits (MoBio Laboratories) following the manufacturers “Vacuum Protocol” with a Precellys® bead homogeniser (Bertin Technologies). Samples were quantified using a Qubit™ dsDNA HS assay kit (Life Technologies) before being stored at −80° C. […]

[3] = system: Veillonella parvula (ATCC 17745); experiment: Six species polymicrobial biofilm in constant-depth film fermenter, species composition: V. parvula; type: cell-based
Protocol: as §1
Three treatments were applied to the polymicrobial biofilms: 290 ppm fluoride with 220 ppm fluoride as SnF2 and 70 ppm fluoride as NaF (referred to as SnF2), 2% CPP-ACP and 2% CPP-ACP-SnF2. […]
as §4

[4] = 19 days, mean ± standard deviation, n = 5-21

Substance: Casein phosphopeptide-amorphous calcium phosphate [CPP-ACP]
- increases in commensal/beneficial species at the 56.4 mg dose compared with the 18.8 mg dose (supragingival plaque; 56.4 mg CPP-ACP gum, 20 min six times per day, 14 days): significantly greater
- proportion of pathogenic species (pathobionts) (supragingival plaque; CPP-ACP gum, 14 days, vs no treatment): concomitant reduction
- proportion of the health-associated symbionts (supragingival plaque; CPP-ACP treatment, randomised controlled clinical study): significant increase
- F. nucleatum as a percentage of total bacteria in the biofilm [1, 4]: 2.43 ± 1.21^ace %
- change in abundance of F. nucleatum after treatment relative to the control (increase) ([1]; day 19, FIG. 5B): 355%
- change in abundance of F. nucleatum relative to the control (in words) ([1]; twice daily treatment, day 19): significantly increased; also recorded: reproducible increases
- S. sanguinis as a percentage of total bacteria in the biofilm [2, 4]: 19.85 ± 2.86^bc %
- change in abundance of S. sanguinis relative to the control (in words) ([2]; twice daily treatment, day 19): significantly increased; also recorded: reproducible increases
- V. parvula as a percentage of total bacteria in the biofilm [3, 4]: 6.71 ± 0.89^c %
- change in abundance of V. parvula relative to the control (in words) ([3]; twice daily treatment, day 19): remained relatively constant

Source: US11717536B2, “Treatment for periodontitis” (THE UNIVERSITY OF MELBOURNE, priority 2017, dated 2023)
